Experimental data taken from the Kinase Knowledgebase extract (Sharma et al. 2016).
Values joined by “and” are separate entries in the source; they are usually repeats but may differ in a detail not shown here. Identical values can stand only once.

Key:
PIK3CG (human) = PIK3CG (human) (UniProt P48736); assay: Assessment of PIK3CG Kinase Activity
PIK3CA (human) = PIK3CA (human) (UniProt P42336); assay: Assessment of PIK3CA Kinase Activity
PIK3CG;PIK3CA (human) [1] = target: PIK3CG;PIK3CA (human) (UniProt P48736); assay: Assessment of Antiproliferation Activity in LNCaP Cells
Chain of PIK3CG;PIK3CA (human) (P48736 whole entry, looked up): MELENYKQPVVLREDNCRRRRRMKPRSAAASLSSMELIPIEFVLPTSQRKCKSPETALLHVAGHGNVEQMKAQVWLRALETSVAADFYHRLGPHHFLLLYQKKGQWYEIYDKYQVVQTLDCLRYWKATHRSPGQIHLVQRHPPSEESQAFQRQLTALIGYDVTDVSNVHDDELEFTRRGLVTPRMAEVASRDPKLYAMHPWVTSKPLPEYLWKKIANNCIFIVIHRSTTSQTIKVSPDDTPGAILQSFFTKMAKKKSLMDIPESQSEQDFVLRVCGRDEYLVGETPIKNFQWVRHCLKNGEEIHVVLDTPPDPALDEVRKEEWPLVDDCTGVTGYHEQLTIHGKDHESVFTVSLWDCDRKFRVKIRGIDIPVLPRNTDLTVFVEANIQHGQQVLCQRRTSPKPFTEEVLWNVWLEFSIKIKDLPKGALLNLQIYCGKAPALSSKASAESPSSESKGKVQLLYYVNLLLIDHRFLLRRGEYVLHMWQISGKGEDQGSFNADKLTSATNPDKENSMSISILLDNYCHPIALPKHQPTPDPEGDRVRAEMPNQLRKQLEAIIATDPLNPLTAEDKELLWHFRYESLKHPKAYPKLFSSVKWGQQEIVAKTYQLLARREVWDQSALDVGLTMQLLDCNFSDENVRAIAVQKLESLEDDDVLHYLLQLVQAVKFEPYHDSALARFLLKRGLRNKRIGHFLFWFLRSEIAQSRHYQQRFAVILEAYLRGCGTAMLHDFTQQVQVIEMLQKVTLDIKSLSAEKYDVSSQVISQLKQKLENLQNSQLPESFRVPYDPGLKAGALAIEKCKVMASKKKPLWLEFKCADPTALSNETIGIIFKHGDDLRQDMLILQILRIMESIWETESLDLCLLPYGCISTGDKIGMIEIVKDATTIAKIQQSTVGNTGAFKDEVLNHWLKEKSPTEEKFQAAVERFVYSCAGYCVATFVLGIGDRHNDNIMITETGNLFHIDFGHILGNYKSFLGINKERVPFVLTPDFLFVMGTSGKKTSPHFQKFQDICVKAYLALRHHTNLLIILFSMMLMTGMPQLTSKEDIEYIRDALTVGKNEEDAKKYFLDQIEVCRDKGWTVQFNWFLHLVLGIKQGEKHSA

PIK3CG;PIK3CA (human) [2] = target: PIK3CG;PIK3CA (human) (UniProt P48736); assay: Assessment of Antiproliferation Activity in MDA-MB-361 Cells
PIK3CG;PIK3CA (human) [3] = target: PIK3CG;PIK3CA (human) (UniProt P48736); assay: Assessment of Antiproliferation Activity in PC3-MM2 Cells; conditions: pc3mm2

Chain of PIK3CA (human) (P42336 whole entry, looked up): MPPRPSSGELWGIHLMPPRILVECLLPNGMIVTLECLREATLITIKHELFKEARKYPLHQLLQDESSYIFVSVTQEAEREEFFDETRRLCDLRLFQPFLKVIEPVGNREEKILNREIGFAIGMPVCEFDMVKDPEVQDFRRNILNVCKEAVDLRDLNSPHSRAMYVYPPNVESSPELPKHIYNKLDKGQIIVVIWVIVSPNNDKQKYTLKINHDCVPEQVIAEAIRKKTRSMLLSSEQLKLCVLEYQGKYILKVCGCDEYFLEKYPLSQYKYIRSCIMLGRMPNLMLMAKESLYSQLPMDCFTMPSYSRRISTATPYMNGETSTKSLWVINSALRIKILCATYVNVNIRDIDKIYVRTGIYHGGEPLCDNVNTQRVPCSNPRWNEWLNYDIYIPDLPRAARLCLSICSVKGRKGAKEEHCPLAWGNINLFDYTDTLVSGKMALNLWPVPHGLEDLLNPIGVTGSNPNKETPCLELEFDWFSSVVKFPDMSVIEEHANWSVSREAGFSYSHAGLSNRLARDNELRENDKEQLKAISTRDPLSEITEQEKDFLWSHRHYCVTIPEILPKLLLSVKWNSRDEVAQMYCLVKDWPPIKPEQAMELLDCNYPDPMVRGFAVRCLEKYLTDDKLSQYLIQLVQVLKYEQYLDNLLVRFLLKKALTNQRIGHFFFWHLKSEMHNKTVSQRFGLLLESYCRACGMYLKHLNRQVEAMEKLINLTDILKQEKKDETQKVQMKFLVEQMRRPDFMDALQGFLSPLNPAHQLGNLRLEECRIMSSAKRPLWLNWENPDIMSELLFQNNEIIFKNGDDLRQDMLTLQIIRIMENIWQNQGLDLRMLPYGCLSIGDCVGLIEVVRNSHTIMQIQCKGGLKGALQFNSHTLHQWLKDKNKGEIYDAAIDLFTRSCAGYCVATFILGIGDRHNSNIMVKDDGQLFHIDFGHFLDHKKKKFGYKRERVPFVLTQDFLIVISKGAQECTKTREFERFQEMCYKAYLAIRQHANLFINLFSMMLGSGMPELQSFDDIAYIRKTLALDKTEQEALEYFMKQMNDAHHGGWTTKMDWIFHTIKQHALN
Chain of PIK3CG (human) (P48736 whole entry, looked up): as the sequence (P48736 whole entry, looked up) above

IC50 (PIK3CG (human))	IC50 (PIK3CA (human))	IC50 (PIK3CG;PIK3CA (human) [1])	IC50 (PIK3CG;PIK3CA (human) [2])	IC50 (PIK3CG;PIK3CA (human) [3])	Structure (SMILES)
10 µM					CC(C)Nc1nc(-c2ccc(NC(=O)NC3CC3)cc2)nc(N2CC3CCC(C2)O3)n1
10 µM					CNC(=O)Nc1ccc(-c2nc(N3CC4CCC(C3)O4)nc(N3CC4CCC(C3)O4)n2)cc1
0.0095 µM	3.2 nM				CC(C)N1CCN(C(=O)c2ccc(NC(=O)Nc3ccc(-c4nc(C5CCOCC5)nc(N5CCOCC5)n4)cc3)cc2)CC1
7.14 µM	1100 nM	1.2 nM			COCCNc1ccc(NC(=O)Nc2ccc(-c3nc(N4C5CCC4COC5)nc(N4C5CCC4COC5)n3)cc2)cc1
10 µM					NCCCNc1nc(-c2ccc(NC(=O)Nc3cccnc3)cc2)nc(N2CC3CCC(C2)O3)n1
8.04 µM	1460 nM	70 nM			O=C(Nc1ccc(NCCO)cc1)Nc1ccc(-c2nc(N3C4CCC3COC4)nc(N3C4CCC3COC4)n2)cc1
10 µM					CC(C)Nc1nc(-c2ccc(NC(=O)NCCO)cc2)nc(N2CC3CCC(C2)O3)n1
0.459 µM	124 nM				FC(F)c1nc2ccccc2n1-c1nc(N2CC3CCC(C2)O3)nc(N2CC3CCC(C2)O3)n1
0.378 µM	22 nM		26 nM	106 nM	C[C@H]1COCCN1c1nc(-c2ccc(NC(=O)Nc3ccc(C(=O)NCCN4CCCC4)cc3)cc2)nc(N2CCOC[C@@H]2C)n1
10 µM					O=C(Nc1ccc(-c2nc(NCCO)nc(N3CC4CCC(C3)O4)n2)cc1)Nc1cccnc1
2.43 µM	586 nM				CN(C)CCOc1ccc(NC(=O)Nc2ccc(-c3nc(N4CCSCC4)nc(N4C5CCC4COC5)n3)cc2)cc1
10 µM					CN1CCN(c2ccc(NC(=O)Nc3ccc(-c4nc(N5C6CCC5COC6)nc(N5[C@H](CO)CC[C@@H]5CO)n4)cc3)cc2)CC1
10 µM					CN1CCCN(c2nc(-c3ccc(NC(=O)Nc4cccnc4)cc3)nc(N3CC4CCC(C3)O4)n2)C1
10 µM					O=C(Nc1ccc(-c2nc(OCCN3CCCCC3)nc(N3CC4CCC(C3)O4)n2)cc1)Nc1cccnc1
	6030 nM	2.2 nM			CN(C)CCN(C)c1ccc(NC(=O)Nc2ccc(-c3nc(N4C5CCC4COC5)nc(N4C5CCC4COC5)n3)cc2)cc1
0.0575 µM	3.5 nM				CN(C)CCNC(=O)c1ccc(NC(=O)Nc2ccc(-c3nc(N4CCCCC4)nc(N4CCOCC4)n3)cc2)cc1
0.043 µM	24 nM				FC(F)c1nc2ccccc2n1-c1nc(N2CCOCC2)nc(N2CC3CCC(C2)O3)n1

IC50 (PIK3CG (human))	IC50 (PIK3CA (human))	IC50 (PIK3CG;PIK3CA (human) [1])	IC50 (PIK3CG;PIK3CA (human) [2])	IC50 (PIK3CG;PIK3CA (human) [3])	Structure (SMILES)
0.658 µM	462 nM				Cc1ccc(-c2nc(-c3ccc(NC(=O)Nc4cccc(C(=O)N5CCC(N(C)C)CC5)c4)cc3)nc(N3CCOCC3)n2)cc1
	832 nM	290 nM			Nc1ccc(-c2nc(-c3ccc(NC(=O)Nc4cccnc4)cc3)nc(N3CC4CCC(C3)O4)n2)cc1
7.03 µM	521 nM	50 nM			CC(C)Nc1nc(-c2ccc(NC(=O)Nc3ccc(N4CCN(C)CC4)nc3)cc2)nc(N2CC3CCC(C2)O3)n1
10 µM					O=C(O)CNC1CCN(c2nc(-c3ccc(NC(=O)Nc4ccncc4)cc3)nc(N3CC4CCC(C3)O4)n2)CC1
0.023 µM	3 nM		68 nM	31 nM	O=C(Nc1ccc(C(=O)Cc2ccccn2)cc1)Nc1ccc(-c2nc(N3CCOCC3)nc(N3CCOCC3)n2)cc1
0.0205 µM	3.5 nM		58 nM	253 nM	CN(C)C1CCN(C(=O)c2ccc(NC(=O)Nc3ccc(-c4nc(-c5ccccc5)nc(N5CCOCC5)n4)cc3)cc2)CC1
	3090 nM	1 nM			CN(C)C1CCN(c2ccc(NC(=O)Nc3ccc(-c4nc(N5C6CCC5COC6)nc(N5C6CCC5COC6)n4)cc3)cc2)CC1
	0.8 nM				CN(C)CCN(C)C(=O)c1ccc(NC(=O)Nc2ccc(-c3nc(C4CCOCC4)nc(N4CCOCC4)n3)cc2)cc1
10 µM					O=C(Nc1ccc(-c2nc(N3C4CCC3COC4)nc(N3C4CCC3COC4)n2)cc1)N1CCNCC1
4 µM	1850 nM	1000 nM			O=C(Nc1ccncc1)Nc1ccc(-c2nc(N3CCC(N4CCOCC4)CC3)nc(N3CC4CCC(C3)O4)n2)cc1
0.444 µM and 0.606 µM	36 nM and 28 nM				CCN(CC)C(=O)[n+]1ccc(NC(=O)Nc2ccc(-c3nc(N4CCOCC4)nc(N4C5CCC4COC5)n3)cc2)cc1
	6340 nM	3 nM			CN1CCC(Nc2ccc(NC(=O)Nc3ccc(-c4nc(N5C6CCC5COC6)nc(N5C6CCC5COC6)n4)cc3)cc2)CC1
0.072 µM	12.5 nM		113 nM	522 nM	Cc1ccc(-c2nc(-c3ccc(NC(=O)Nc4ccc(C(=O)N5CCCC5)cc4)cc3)nc(N3CCOCC3)n2)cc1
0.036 µM	2 nM				CN(C)CCN(C)C(=O)c1ccc(NC(=O)Nc2ccc(-c3nc(N4CCC4)nc(N4CCOCC4)n3)cc2)cc1
				27 nM	O=C(Nc1ccc(C(=O)NCCN2CCCC2)cc1)Nc1ccc(-c2nc(O[C@H]3CCOC3)nc(N3CCOCC3)n2)cc1
		100 nM			O=C(Nc1ccc(-c2nc(N3C[C@@H]4C[C@H]3CO4)nc(N3C[C@@H]4C[C@H]3CO4)n2)cc1)Nc1ccc(N2CCNCC2)cc1
0.0585 µM			43 nM	193 nM	CC(C)N1CCN(C(=O)c2ccc(NC(=O)Nc3ccc(-c4nc(N5CCCCC5)nc(N5CCOCC5)n4)cc3)cc2)CC1
